Measurements taken from patent publication US12220419B2, “BCL-2 inhibitors” (Newave Pharmaceutical Inc., priority 2018, dated 2025).
Structures can show the parent of a compound that is named as a salt. Where two headings read alike, the source gives them in different places.

Legend:
[1] = target: BCL-2 (Homo sapiens (Human), UniProt P10415); test: BCL-2 competition binding (fluorescence polarization) assay; settings: read-out: BCL2 IC50
Procedure: Biological Example 1: BCL-2 Competition Binding (Fluorescence Polarization) Assay
The fluorescence-labeled 23 amino acid peptide BH3 was purchased from CalBiochem ([…]). […] This binding assay was performed in 96-well plate and with each assay contained 15 and 30 nM of labeled peptide and purified BCL-2 protein (purchased from R&D Systems, Inc). The assay buffer contained 20 mM Hepes (pH 7.0), 50 mM KCl, 5 mM MgCl2, 20 mM Na2MoO4, 0.1 mg/ml Bovine Gamma Globulin and 0.01% NP40. Compounds were diluted in DMSO and added to the final assay with concentration range from 20 μM to 2 nM. The polarization degree (mP) value was determined by BioTek Synergy II with background subtraction after 3 hours of incubation at room temperature. IC50 was calculated using Prism software with sigmoidal dose-response curve fitting. ABT-737 was used as reference compound. Such assays, carried out with a range of doses of test compounds, allowed the determination of an approximate IC50 value.

[2] = test system: BCL-2-dependent acute lymphoblastic leukemia (ALL) cell line RS4;11; test: In vitro anti-proliferation assay (ATPlite luminescence) in RS4;11; format: cell-based; settings: RS4;11 cells, about 72 hours, medium with 5% FBS or 10% normal human serum
Procedure: Cell antiproliferation was assayed by PerkinElmer ATPlite™ Luminescence Assay System. Briefly, the various test cancer cell lines were plated at a density of about 1×10^4 cells per well in Costar 96-well plates, and were incubated with different concentrations of compounds for about 72 hours in medium supplemented with 5% FBS or 10% normal human serum (NHS). One lyophilized substrate solution vial was then reconstituted by adding 5 mL of substrate buffer solution, and was agitated gently until the solution was homogeneous. About 50 μL of mammalian cell lysis solution was added to 100 μL of cell suspension per well of a microplate, and the plate was shaken for about five minutes in an orbital shaker at 700 rpm. This procedure was used to lyse the cells and to stabilize the ATP. Next, 50 μL substrate solution was added to the wells and microplate was shaken for five minutes in an orbital shaker at 700 rpm. Finally, the luminescence was measured by a PerkinElmer TopCount® Microplate Scintillation Counter. Such assays, carried out with a range of doses of test compounds, allowed the determination of the cellular anti-antiproliferative IC50 of the compounds of the present invention.

[3] = fluorescein-labeled BH3 peptide 15 nM, purified BCL-2 protein 30 nM, 3 hours incubation at room temperature

Chain of BCL-2 (P10415 whole entry): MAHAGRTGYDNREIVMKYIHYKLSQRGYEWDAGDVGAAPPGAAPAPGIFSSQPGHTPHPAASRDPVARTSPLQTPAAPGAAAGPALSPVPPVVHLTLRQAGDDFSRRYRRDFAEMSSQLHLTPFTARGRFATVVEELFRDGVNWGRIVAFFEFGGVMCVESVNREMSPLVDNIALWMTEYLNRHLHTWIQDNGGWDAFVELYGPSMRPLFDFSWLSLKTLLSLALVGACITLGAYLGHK

| SMILES | IC50 [1] | IC50 [2] | IC50 [1, 3] |
| --- | --- | --- | --- |
| CC1(C)CC(c2ccc(Cl)cc2)=C(CN2CCN(c3ccc(C(=O)NS(=O)(=O)c4ccc(NC[C@H]5COCCO5)c([N+](=O)[O-])c4)c(N4CCCOc5nc6[nH]ccc6cc54)c3)CC2)CO1 [Example 72, 4-(4-[[4-(4-chlorophenyl)-6,6-dimethyl-2,5-dihydropyran-3-yl]methyl]piperazin-1-yl)-N-(4-[[(2S)-1,4-dioxan-2-ylmethyl]amino]-3-nitrobenzenesulfonyl)-2-[14-oxa-2,4,10-triazatricyclo[7.5.0.0^[3,7]]tetradeca-1(9),2,5,7-tetraen-10-yl]benzamide] | 0.01 nM | 0.3 nM |  |
| Cc1ncsc1-c1ccc(CNC(=O)[C@@H]2C[C@@H](O)CN2C(=O)[C@@H](NC(=O)CCOCCOCCOCCOCCOCCNc2ccc(S(=O)(=O)NC(=O)c3ccc(N4CCN(CC5=C(c6ccc(Cl)cc6)CC(C)(C)CC5)CC4)cc3N3CCCOc4nc5[nH]ccc5cc43)cc2[N+](=O)[O-])C(C)(C)C)cc1 [Example 55, (2S,4R)-1-[(2S)-2-[1-[(4-[[4-(4-[[2-(4-chlorophenyl)-4,4-dimethylcyclohex-1-en-1-yl]methyl]piperazin-1-yl)-2-[14-oxa-2,4,10-triazatricyclo[7.5.0.0^[3,7]]tetradeca-1(9),2,5,7-tetraen-10-yl]phenyl]formamidosulfonyl]-2-nitrophenyl)amino]-3,6,9,12,15-pentaoxaoctadecan-18-amido]-3,3-dimethylbutanoyl]-4-hydroxy-N-[[4-(4-methyl-1,3-thiazol-5-yl)phenyl]methyl]pyrrolidine-2-carboxamide] |  | 75 nM | 1.1 nM |
| O=C(NS(=O)(=O)c1ccc(NC[C@H]2COCCO2)c([N+](=O)[O-])c1)c1ccc(N2CCN(CC3=C(c4ccc(Cl)cc4)CCCCC3)CC2)cc1N1CCCOc2nc3[nH]ccc3cc21 [Example 75, 4-(4-[[2-(4-chlorophenyl)cyclohept-1-en-1-yl]methyl]piperazin-1-yl)-N-(4-[[(2S)-1,4-dioxan-2-ylmethyl]amino]-3-nitrobenzenesulfonyl)-2-[14-oxa-2,4,10-triazatricyclo[7.5.0.0^[3,7]]tetradeca-1(9),2,5,7-tetraen-10-yl]benzamide] |  | 2.7 nM | 0.6 nM |
| Cc1ncsc1-c1ccc(CNC(=O)[C@@H]2C[C@@H](O)CN2C(=O)[C@@H](NC(=O)CCOCCN2CCN(CCNc3ccc(S(=O)(=O)NC(=O)c4ccc(N5CCN(CC6=C(c7ccc(Cl)cc7)CC(C)(C)CC6)CC5)cc4N4CCCOc5nc6[nH]ccc6cc54)cc3[N+](=O)[O-])CC2)C(C)(C)C)cc1 [Example 58] |  | 102 nM | 0.3 nM |
| Cc1ncsc1-c1ccc(CNC(=O)[C@@H]2C[C@@H](O)CN2C(=O)[C@@H](NC(=O)CCOCCOCCN2CCN(CCNc3ccc(S(=O)(=O)NC(=O)c4ccc(N5CCN(CC6=C(c7ccc(Cl)cc7)CC(C)(C)CC6)CC5)cc4N4CCCOc5nc6[nH]ccc6cc54)cc3[N+](=O)[O-])CC2)C(C)(C)C)cc1 [Example 56] |  | 63.7 nM | 0.4 nM |
| CC1(C)CCC(CN2CCN(c3ccc(C(=O)NS(=O)(=O)c4ccc(NCCOCCOCCOCCOCCNc5cccc6c5C(=O)N(C5CCC(=O)NC5=O)C6=O)c([N+](=O)[O-])c4)c(N4CCCOc5nc6[nH]ccc6cc54)c3)CC2)=C(c2ccc(Cl)cc2)C1 (centres unmarked) [Example 51, 4-(4-[[2-(4-chlorophenyl)-4,4-dimethylcyclohex-1-en-1-yl]methyl]piperazin-1-yl)-N-[4-(15-[[2-(2,6-dioxopiperidin-3-yl)-1,3-dioxoisoindol-4-yl]amino]-4,7,10,13-tetraoxa-1-azapentadecan-1-yl)-3-nitrobenzenesulfonyl]-2-[14-oxa-2,4,10-triazatricyclo[7.5.0.0^[3,7]]tetradeca-1(9),2,5,7-tetraen-10-yl]benzamide] |  | 62 nM | 0.9 nM |
| CC1(C)CCC(c2ccc(Cl)cc2)=C(CN2CCN(c3ccc(C(=O)NS(=O)(=O)c4ccc(NC[C@H]5COCCO5)c([N+](=O)[O-])c4)c(N4CCCOc5nc6[nH]ccc6cc54)c3)CC2)C1 [Example 73, 4-(4-[[2-(4-chlorophenyl)-5,5-dimethylcyclohex-1-en-1-yl]methyl]piperazin-1-yl)-N-(4-[[(2S)-1,4-dioxan-2-ylmethyl]amino]-3-nitrobenzenesulfonyl)-2-[14-oxa-2,4,10-triazatricyclo[7.5.0.0^[3,7]]tetradeca-1(9),2,5,7-tetraen-10-yl]benzamide] |  | 3.1 nM | 0.9 nM |
| CC1(C)CCC(CN2CCN(c3ccc(C(=O)NS(=O)(=O)c4ccc(NC[C@H]5COCCO5)c([N+](=O)[O-])c4)c(-n4c5ccncc5c5nc6[nH]ccc6cc54)c3)CC2)=C(c2ccc(Cl)cc2)C1 [Example 71, 4-(4-[[2-(4-chlorophenyl)-4,4-dimethylcyclohex-1-en-1-yl]methyl]piperazin-1-yl)-N-(4-[[(2S)-1,4-dioxan-2-ylmethyl]amino]-3-nitrobenzenesulfonyl)-2-[4,8,14,16-tetraazatetracyclo[7.7.0.0^[2,7].0[11,15]]hexadeca-1(16),2(7),3,5,9,11(15),12-heptaen-8-yl]benzamide] |  | 192 nM | 0.6 nM |
| CNc1ccc2c(n1)OCCCN2c1cc(N2CCN(CC3=C(c4ccc(Cl)cc4)CC(C)(C)CC3)CC2)ccc1C(=O)NS(=O)(=O)c1ccc(NC[C@H]2COCCO2)c([N+](=O)[O-])c1 [Example 42, 4-(4-[[2-(4-chlorophenyl)-4,4-dimethylcyclohex-1-en-1-yl]methyl]piperazin-1-yl)-N-(4-[[(2S)-1,4-dioxan-2-ylmethyl]amino]-3-nitrobenzenesulfonyl)-2-[7-(methylamino)-2H,3H,4H-pyrido[2,3-b][1,4]oxazepin-1-yl]benzamide hydrochloride] |  | > 1000 nM | 4.1 nM |
| Cc1ncsc1-c1ccc(CNC(=O)[C@@H]2C[C@@H](O)CN2C(=O)[C@@H](NC(=O)CCOCCOCCOCCN2CCN(CCNc3ccc(S(=O)(=O)NC(=O)c4ccc(N5CCN(CC6=C(c7ccc(Cl)cc7)CC(C)(C)CC6)CC5)cc4N4CCCOc5nc6[nH]ccc6cc54)cc3[N+](=O)[O-])CC2)C(C)(C)C)cc1 [Example 54] |  | 49.6 nM | 0.6 nM |
| CC1(C)CCC(CN2CCN(c3ccc(C(=O)NS(=O)(=O)c4ccc(NCCN5CCN(CCOCCOCCNc6cccc7c6C(=O)N(C6CCC(=O)NC6=O)C7=O)CC5)c([N+](=O)[O-])c4)c(N4CCCOc5nc6[nH]ccc6cc54)c3)CC2)=C(c2ccc(Cl)cc2)C1 (centres unmarked) [Example 50, 4-(4-[[2-(4-chlorophenyl)-4,4-dimethylcyclohex-1-en-1-yl]methyl]piperazin-1-yl)-N-(4-[[2-(4-[2-[2-(2-[[2-(2,6-dioxopiperidin-3-yl)-1,3-dioxoisoindol-4-yl]amino]ethoxy)ethoxy]ethyl]piperazin-1-yl)ethyl]amino]-3-nitrobenzenesulfonyl)-2-[14-oxa-2,4,10-triazatricyclo[7.5.0.0^[3,7]]tetradeca-1(9),2,5,7-tetraen-10-yl]benzamide] | 0.6 nM | 43 nM |  |
| Cc1ncsc1-c1ccc(CNC(=O)[C@@H]2C[C@@H](C)CN2C(=O)[C@@H](NC(=O)CCOCCOCCOCCNc2ccc(S(=O)(=O)NC(=O)c3cc(N4CCN(CC5=C(c6ccc(Cl)cc6)CC(C)(C)CC5)CC4)ccc3N3CCCOc4nc5[nH]ccc5cc43)cc2[N+](=O)[O-])C(C)(C)C)cc1 [Example 59, (2S,4R)-1-[(2S)-2-[3-[2-(2-[2-[(4-[[5-(4-[[2-(4-chlorophenyl)-4,4-dimethylcyclohex-1-en-1-yl]methyl]piperazin-1-yl)-2-[14-oxa-2,4,10-triazatricyclo[7.5.0.0^[3,7]]tetradeca-1(9),2,5,7-tetraen-10-yl]phenyl]formamidosulfonyl]-2-nitrophenyl)amino]ethoxy]ethoxy)ethoxy]propanamido]-3,3-dimethylbutanoyl]-4-methyl-N-[[4-(4-methyl-1,3-thiazol-5-yl)phenyl]methyl]pyrrolidine-2-carboxamide] |  | 84 nM | 1.1 nM |
| Cn1c(=O)c2nc3[nH]ccc3cc2n1-c1cc(N2CCN(CC3=C(c4ccc(Cl)cc4)CC(C)(C)CC3)CC2)ccc1C(=O)NS(=O)(=O)c1ccc(NC[C@H]2COCCO2)c([N+](=O)[O-])c1 [Example 70, 4-(4-[[2-(4-chlorophenyl)-4,4-dimethylcyclohex-1-en-1-yl]methyl]piperazin-1-yl)-N-(4-[[(2S)-1,4-dioxan-2-ylmethyl]amino]-3-nitrobenzenesulfonyl)-2-[11-methyl-12-oxo-2,4,10,11-tetraazatricyclo[7.3.0.0^[3,7]]dodeca-1,3(7),5,8-tetraen-10-yl]benzamide] |  | 186 nM | 0.1 nM |
